{
  "source": "patent US20100210464A1",
  "about": "“HERBICIDAL COMPOSITION AND METHOD OF USE THEREOF” (SYNGENTA CROP PROTECTION, INC., priority 2007, published 2010)",
  "assay_type_in_all_cases": "in vivo",
  "key": {"[1]": {"system": "goosegrass (Eleusine indica)", "experiment": "Glasshouse trial, control of goosegrass, granules applied pre-emergence (Example 2)", "description": "(§1) A glasshouse trial was carried out. Goosegrass seeds were sown into standard glasshouse potting mix (1:1 v/v Promix:Vero sand soil) contained in 10 cm square plastic pots. Treatments were replicated three times. Mesotrione (in the form Callisto® 480SE) was applied pre-emergence to goosegrass (Eleusine indica) at 100 g ai/ha with or without pendimethalin (in the form Prowl® H2O). When used, pendimethalin was applied at a rate of 140 g ai/ha or 280 g ai/ha. The adjuvant system was X-77 at 0.1% v/v in deionised water. 200 litres of herbicide/adjuvant system was used per hectare. General weed control was evaluated at 7 and 14 days after treatment (DAT). It is noted that all herbicides were applied at reduced field rates because herbicide effects are magnified in a glasshouse environment. Rates were chosen to give a 50 to 70% level of control with herbicides applied alone as this allows for detection of any synergistic effect when tank mixtures are used. The results were evaluated using the Colby formula. The expected result for (A+B) is (A+B)−(A×B/100) where A and B are the ‘observed’ results for A and B on their own. […] A glasshouse trial was carried out as described in Example 1, except that the herbicides were applied in the form of granules. Mesotrione granules were made by spraying a mesotrione millbase (28% SC formulation) onto a granular carrier, Agsorb LVM-GA 24/48. Pendimethalin granules were made by adding Prowl® 3.3EC (37.4%) and Agsorb LVM-GA 24/48 granules into a tumbler, followed by spraying with a binder, HiSil 233. For testing mixtures of mesotrione and pendimethalin, the appropriate number of granules for each herbicide were weighed and thoroughly mixed. […]"}, "[2]": {"system": "goosegrass (Eleusine indica)", "experiment": "Glasshouse trial, control of goosegrass, spray applied pre-emergence (Example 1)", "conditions": "for Actual weed control, Plus Mesotrione at 100 g ai/ha: X-77 0.1% v/v", "description": "In the following tests, herbicides were applied at reduced field rates because herbicide effects are magnified in a glasshouse environment. The rates tested were selected to give between about 50 and 70% control with herbicides applied alone, so that any synergistic effect could be readily detected when testing mixtures. A glasshouse trial was carried out. Goosegrass seeds were sown into standard glasshouse potting mix (1:1 v/v Promix:Vero sand soil) contained in 10 cm square plastic pots. Treatments were replicated three times. Mesotrione (in the form Callisto® 480SE) was applied pre-emergence to goosegrass (Eleusine indica) at 100 g ai/ha with or without pendimethalin (in the form Prowl® H2O). When used, pendimethalin was applied at a rate of 140 g ai/ha or 280 g ai/ha. The adjuvant system was X-77 at 0.1% v/v in deionised water. 200 litres of herbicide/adjuvant system was used per hectare. General weed control was evaluated at 7 and 14 days after treatment (DAT). It is noted that all herbicides were applied at reduced field rates because herbicide effects are magnified in a glasshouse environment. Rates were chosen to give a 50 to 70% level of control with herbicides applied alone as this allows for detection of any synergistic effect when tank mixtures are used. The results were evaluated using the Colby formula. The expected result for (A+B) is (A+B)−(A×B/100) where A and B are the ‘observed’ results for A and B on their own."}, "[3]": {"system": "white clover (Trifolium repens)", "experiment": "Glasshouse trial, control of white clover, granules applied post-emergence (Example 4)", "conditions": "pendimethalin granules 1120 g ai/ha + mesotrione granules 200 g ai/ha", "description": "as §1, with “200” for “A glasshouse trial was carried out. Goosegrass seeds were sown into standard glasshouse potting mix (1:1 v/v Promix:Vero sand soil) contained in 10 cm square plastic pots. Treatments were replicated three times. Mesotrione (in the form Callisto® 480SE) was applied pre-emergence to goosegrass (Eleusine indica) at 100 g ai/ha with or without pendimethalin (in the form Prowl® H2O). When used, pendimethalin was applied at a rate of 140 g ai/ha or 280 g ai/ha. The adjuvant system was X-77 at 0.1% v/v in deionised water. 200”, “mixed. Granules were weighed for each individual pot using an amount equivalent to the rates listed in Table 2, and, based on a pot surface area of 10 cm^2, were carefully hand sprinkled on the emerged plants and pot surface.” for “mixed.”"}, "[4]": {"conditions": "pendimethalin granules 140 g ai/ha + mesotrione granules 100 g ai/ha"}, "[5]": {"conditions": "pendimethalin granules 140 g ai/ha + mesotrione granules 200 g ai/ha"}, "[6]": {"conditions": "pendimethalin granules 280 g ai/ha + mesotrione granules 100 g ai/ha"}, "[7]": {"conditions": "pendimethalin granules 280 g ai/ha + mesotrione granules 200 g ai/ha"}},
  "note": "Marks after values point to notes of the source that are not given here.",
  "data": [
    {"smiles": "CCC(CC)Nc1c([N+](=O)[O-])cc(C)c(C)c1[N+](=O)[O-]", "note": "[Pendimethalin, N-(1-ethylpropyl)-3,4-dimethyl-2,6-dinitrobenzenamine]", "values": [
      {"measurement": "Actual weed control, Plus Mesotrione at 100 g ai/ha", "setting": "[1]; [4]", "value": "67* %"},
      {"measurement": "Expected weed control (Colby formula), Plus Mesotrione at 100 g ai/ha", "setting": "[1]; [4]", "value": 48, "unit": "%"},
      {"measurement": "Actual weed control, Plus Mesotrione at 200 g ai/ha", "setting": "[1]; [5]", "value": "95* %"},
      {"measurement": "Expected weed control (Colby formula), Plus Mesotrione at 200 g ai/ha", "setting": "[1]; [5]", "value": 80, "unit": "%"},
      {"measurement": "Actual weed control, Plus Mesotrione at 100 g ai/ha", "setting": "[1]; [6]", "value": "87* %"},
      {"measurement": "Expected weed control (Colby formula), Plus Mesotrione at 100 g ai/ha", "setting": "[1]; [6]", "value": 49, "unit": "%"},
      {"measurement": "Actual weed control, Plus Mesotrione at 200 g ai/ha", "setting": "[1]; [7]", "value": "100* %"},
      {"measurement": "Expected weed control (Colby formula), Plus Mesotrione at 200 g ai/ha", "setting": "[1]; [7]", "value": 80, "unit": "%"},
      {"measurement": "Expected weed control (Colby formula), Plus Mesotrione at 100 g ai/ha", "setting": "[2]; pendimethalin 140 g ai/ha + mesotrione 100 g ai/ha", "value": 22, "unit": "%"},
      {"measurement": "Expected weed control (Colby formula), Plus Mesotrione at 100 g ai/ha", "setting": "[2]; pendimethalin 280 g ai/ha + mesotrione 100 g ai/ha", "value": 22, "unit": "%"},
      {"measurement": "Actual weed control, Plus Mesotrione at 100 g ai/ha", "setting": "[2]; pendimethalin (Prowl H2O) 140 g ai/ha + mesotrione (Callisto 480SE) 100 g ai/ha", "value": "35* %"},
      {"measurement": "Actual weed control, Plus Mesotrione at 100 g ai/ha", "setting": "[2]; pendimethalin (Prowl H2O) 280 g ai/ha + mesotrione (Callisto 480SE) 100 g ai/ha", "value": "37* %"},
      {"measurement": "Actual weed control, Plus Mesotrione at 200 g ai/ha", "setting": "[3]", "value": "93* %"},
      {"measurement": "Expected weed control (Colby formula), Plus Mesotrione at 200 g ai/ha", "setting": "[3]", "value": 76, "unit": "%"}
    ]}
  ]
}
